Data from PubChem BioAssay (NCI).
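Cells were grown in 96-well plates and exposed to each compound for 48 hours at five concentrations; endpoints were interpolated linearly between bracketing concentrations, or set to the highest concentration if not reached. At the GI50, growth is halved. TGI marks complete inhibition of growth.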

How the values were obtained:
Assay in all cases: inhibition of tumour cell growth, NCI panel, 48 h
OVCAR-4 ovarian = test system: OVCAR-4 ovarian
A498 renal = test system: A498 renal
NCI-H226 lung = test system: NCI-H226 lung
SF-268 CNS = test system: SF-268 CNS
PC-3 prostate = test system: PC-3 prostate
HT29 colon = test system: HT29 colon
OVCAR-5 ovarian = test system: OVCAR-5 ovarian
CAKI-1 renal = test system: CAKI-1 renal
HOP-92 NSCLC = test system: HOP-92 NSCLC
SK-OV-3 ovarian = test system: SK-OV-3 ovarian

With `COc1ccc2c3c(Nc4cccc(/C(C)=N\O)c4)[nH]c4ccccc4c-3c(N=O)c2c1` the GI50 (OVCAR-4 ovarian) was 29 µM, the TGI (OVCAR-4 ovarian) was over 100 µM and the GI50 (A498 renal) was 78.1 µM. The TGI (A498 renal) was over 100 µM, the GI50 (NCI-H226 lung) was 54 µM and the TGI (NCI-H226 lung) was over 100 µM. The GI50 (SF-268 CNS) was over 100 µM, the TGI (SF-268 CNS) was over 100 µM and the GI50 (PC-3 prostate) was 20.5 µM. It also gave a TGI (PC-3 prostate) of 65.4 µM, a GI50 (HT29 colon) of 18.3 µM and a TGI (HT29 colon) of over 100 µM. The GI50 (OVCAR-5 ovarian) was 26.5 µM, the TGI (OVCAR-5 ovarian) was 96.9 µM and the GI50 (CAKI-1 renal) was 29.3 µM. It also gave a TGI (CAKI-1 renal) of 54.8 µM.
In the case of `COc1cc(C2c3cc4c(cc3[C@@H](Nc3cccc(CO)c3)C3COC(=O)[C@H]23)OCO4)cc(OC)c1O` (stereo not given in full), the TGI (OVCAR-4 ovarian) is reported as 30.4 µM, the TGI (HOP-92 NSCLC) is reported as 13.3 µM and the TGI (SK-OV-3 ovarian) is reported as 9.04 µM. It also gave a TGI (A498 renal) of 1.77 µM, a TGI (NCI-H226 lung) of 1.7 µM and a TGI (SF-268 CNS) of 14.5 µM. For the same compound, the TGI (HT29 colon) was 5.15 µM, the TGI (OVCAR-5 ovarian) was 11.5 µM and the TGI (CAKI-1 renal) was 1.91 µM.
`CC(CC(N)C(=O)O)C(=O)O` (stereo not given) showed a TGI (OVCAR-4 ovarian) of over 100 µM, a TGI (HOP-92 NSCLC) of over 100 µM and a TGI (A498 renal) of over 100 µM. For the same compound, the TGI (NCI-H226 lung) was over 100 µM, the TGI (SF-268 CNS) was over 100 µM and the TGI (PC-3 prostate) was over 100 µM. The TGI (HT29 colon) was over 100 µM, the TGI (OVCAR-5 ovarian) was over 100 µM and the TGI (CAKI-1 renal) was over 100 µM.
Compound `COc1cc(OC)cc(-c2ccc(-c3ccc(C(=N)N)cn3)o2)c1` has a GI50 (OVCAR-4 ovarian) of 1.74 µM, a TGI (OVCAR-4 ovarian) of 3.46 µM and a GI50 (HOP-92 NSCLC) of 1.42 µM. It also gave a TGI (HOP-92 NSCLC) of 2.87 µM, a GI50 (SK-OV-3 ovarian) of 1.91 µM and a TGI (SK-OV-3 ovarian) of 3.34 µM. The GI50 (A498 renal) was 1.22 µM, the TGI (A498 renal) was 2.51 µM and the GI50 (SF-268 CNS) was 1.86 µM. It also gave a TGI (SF-268 CNS) of 3.62 µM, a GI50 (PC-3 prostate) of 1.65 µM and a TGI (PC-3 prostate) of 3.14 µM. For the same compound, the GI50 (OVCAR-5 ovarian) was 1.74 µM and the TGI (OVCAR-5 ovarian) was 3.2 µM.
Compound `OCC1COc2cc(Cl)c(Cl)cc2O1` (stereo not given) has a TGI (OVCAR-4 ovarian) of over 10 µM, a TGI (SK-OV-3 ovarian) of over 10 µM and a TGI (A498 renal) of over 10 µM. The TGI (NCI-H226 lung) was over 10 µM, the TGI (SF-268 CNS) was over 10 µM and the TGI (PC-3 prostate) was over 10 µM. The TGI (HT29 colon) was over 10 µM, the TGI (OVCAR-5 ovarian) was over 10 µM and the TGI (CAKI-1 renal) was over 10 µM.
With `CSCC[C@@H]1C(=O)N(C)[C@H](C(C)(C)C)N1C(=O)c1ccccc1` the TGI (OVCAR-4 ovarian) was over 100 µM, the TGI (HOP-92 NSCLC) was over 100 µM and the TGI (SK-OV-3 ovarian) was over 100 µM. The TGI (A498 renal) was over 100 µM, the TGI (NCI-H226 lung) was over 100 µM and the TGI (SF-268 CNS) was over 100 µM. It also gave a TGI (HT29 colon) of over 100 µM and a TGI (OVCAR-5 ovarian) of over 100 µM.
`COc1nc2cccc(C(O)c3ccccc3)c2nc1-c1ccccc1` (stereo not given) gave a TGI (OVCAR-4 ovarian) of over 100 µM, a TGI (HOP-92 NSCLC) of 31.8 µM and a TGI (A498 renal) of 11.7 µM. It also gave a TGI (NCI-H226 lung) of 13.3 µM, a TGI (SF-268 CNS) of 33.4 µM and a TGI (PC-3 prostate) of 65.5 µM. For the same compound, the TGI (HT29 colon) was 72.4 µM, the TGI (OVCAR-5 ovarian) was 54.8 µM and the TGI (CAKI-1 renal) was 63.8 µM.
`CC1(C)[C@@H]2CC[C@]1(C)[C@H](OC(=O)/C=C/c1ccccc1)C2` was tested, and the TGI (OVCAR-4 ovarian) was 55.1 µM, the TGI (SK-OV-3 ovarian) was 84.2 µM and the TGI (A498 renal) was 32.3 µM. The TGI (NCI-H226 lung) was 36.4 µM, the TGI (SF-268 CNS) was 33.9 µM and the TGI (PC-3 prostate) was 56.4 µM. It also gave a TGI (HT29 colon) of 33.7 µM, a TGI (OVCAR-5 ovarian) of 39.1 µM and a TGI (CAKI-1 renal) of 38 µM.
Work on `COc1cc(C(=O)O[C@H](C(=O)NCCCNC(=O)[C@@H](OC(=O)c2cc(OC)cc3c(C)cccc23)[C@]2(C)CO2)[C@]2(C)CO2)c2cccc(C)c2c1` yielded a GI50 (OVCAR-4 ovarian) of under 0.01 µM, a TGI (OVCAR-4 ovarian) of 0.231 µM and a GI50 (HOP-92 NSCLC) of under 0.0113 µM. For the same compound, the TGI (HOP-92 NSCLC) was 0.15 µM, the GI50 (SK-OV-3 ovarian) was 0.501 µM and the TGI (SK-OV-3 ovarian) was 1.98 µM. For the same compound, the TGI (A498 renal) was 1.83 µM, the GI50 (NCI-H226 lung) was 0.151 µM and the TGI (NCI-H226 lung) was 0.762 µM. For the same compound, the GI50 (SF-268 CNS) was under 0.01 µM, the GI50 (PC-3 prostate) was under 0.0367 µM and the TGI (PC-3 prostate) was 0.477 µM. The GI50 (HT29 colon) was under 0.0121 µM, the GI50 (OVCAR-5 ovarian) was 0.168 µM and the TGI (OVCAR-5 ovarian) was 1.45 µM. The GI50 (CAKI-1 renal) was 0.033 µM and the TGI (CAKI-1 renal) was 0.205 µM.
